Common to all, as to test: Resazurin viability, 5 days
Common to all, as to assay type: cell-based, human
(Alamar Blue is a resazurin reagent that responds to reducing activity.)

For one experiment, the system named is A3. Conditions: A3, C, T-cell acute lymphoblastic leukemia. On the procedure:
(§1) Cells were seeded in 96- or 384-well plates and incubated for 3 days for combination experiments or 5 days for single-drug exposure experiments. Resazurin (R7017, SigmaAldrich) was added to a final concentration of 0.01 mg/ml resazurin and fluorescence was measured at ex530/em590 after incubation for 2, 4 or 6 h. Curves were fitted using XLfit software (IDBS) or Prism 8.0 (Graphpad Software), and EC50 values were determined.
(§2) Supplementary Table S1: Effect of OGG1 inhibitors on cancer and non-transformed cell lines.
(§3) Cell lines were incubated with a dilution series of the indicated compounds for 5 days, and viability
(§4) assessed with resazurin. EC50-values were calculated based on the resulting dose -response curves.
(§5) The number of independent experiments is indicated for each value.
(§6) C=cancer;N=non- Disease EC50 n= EC50 n= EC50 n=
(§7) transformed (µM) (µM) (µM)

Another experiment concerns CCRF-CEM. Conditions: C, T-cell acute lymphoblastic leukemia. On the procedure:
as §1, §2, §3, §4, §5, §6, §7
A3 C T-cell acute lymphoblastic leukemia 10.0 12 7.9 7 9.8 5 […]
CCRF-CEM C T-cell acute lymphoblastic leukemia 13.0 5 10.5 2 7.9 2 […]

The next experiment has as its system KG1a. Conditions: C, Acute myelogenous leukemia. As for the experimental part: as §1, §2, §3, §4, §5, §6
A further experiment has as its system Hec59. Conditions: Hec59, C, Endometrioid adenocarcinoma. On the procedure:
as §1, §2, §3, §4, §5, §6

For a further experiment, the system named is M059J. Conditions: C, Glioblastoma. As for the experimental part:
as §1, §2, §3, §4, §5, §6

Another experiment concerns MCF7. Conditions: MCF7, C, Breast adenocarcinoma. On the procedure:
as §1, §2, §3, §4, §5, §6

The subject of a further experiment is K562. Conditions: K562, C, Chronic myelogenous leukemia. As for the experimental part:
as §1, §2, §3, §4, §5, §6

The next experiment concerns SW1271. Conditions: SW1271, C, Small cell lung carcinoma. On the procedure: as §1, §2, §3, §4, §5, §6
Another experiment deals with THP1. Conditions: THP1, C, Acute monocytic leukemia. On the procedure:
as §1, §2, §3, §4, §5, §6
(§8) transformed (µM) (µM) (µM) […]
THP1 C Acute monocytic leukemia 17.8 4 19.2 2

The subject of another experiment is LCL#1. Conditions: LCL#1, N, Non-transformed lymphoblastoid cell line. On the procedure:
as §1, §2, §3, §4, §5, §6, §8

The subject of the next experiment is NB-4. Conditions: NB-4, C, Acute promyelocytic leukemia. As for the experimental part:
as §1, §2, §3, §4, §5, §6, §8

In a further experiment the test system is LCL#2. Conditions: LCL#2, N, Non-transformed lymphoblastoid cell line. On the procedure:
as §1, §2, §3, §4, §5, §6, §8

In the next experiment the test system is Jurkat. Conditions: C, T-cell acute lymphoblastic leukemia. On the procedure: as §1, §2, §3, §4, §5, §6, §8
A further experiment has as its system Hec59+Chr2. Conditions: Hec59+Chr2, C, Endometrioid adenocarcinoma with WT Chr2. On the procedure: as §1, §2, §3, §4, §5, §6, §8
For the next experiment, the system named is BJ-Ras. Conditions: C, RAS-transformed fibroblast. As for the experimental part: as §1, §2, §3, §4, §5, §6, §8
A further experiment has as its system RFX393. Conditions: RFX393, C, Kidney carcinoma. As for the experimental part: as §1, §2, §3, §4, §5, §6, §8
In a further experiment the test system is ACHN. Conditions: C, Kidney adenocarcinoma. On the procedure:
as §1, §2, §3, §4, §5, §6, §8

For the next experiment, the system named is Reh. Conditions: C, Acute lymphocytic leukemia (non-T, non-B). As for the experimental part:
as §1, §2, §3, §4, §5, §6, §8

For orientation: EC50 means the concentration giving half of the maximal effect. As for `O=C(Nc1ccc(I)cc1)N1CCC(n2c(=O)[nH]c3c(Br)cccc32)CC1` [TH5487], the EC50 was determined as 10 µM with A3; 13 µM in the experiment on CCRF-CEM; 14.3 µM with KG1a; 17 µM in the experiment on Hec59; 26.1 µM with M059J; 23.3 µM in the experiment with MCF7. For the same compound, the EC50 in the experiment with K562 is 16.7 µM; in the experiment with SW1271, 22 µM; in the experiment with THP1, 17.8 µM; in the experiment with LCL#1 it was 31.1 µM; in the experiment on NB-4, 4.8 µM; in the experiment on LCL#2, 27.7 µM. For the same compound, the concentration giving a half-maximal response (EC50) in the experiment with Jurkat amounted to 10.5 µM; with Hec59+Chr2 it was 15.7 µM; in the experiment on BJ-Ras, 4.8 µM; in the experiment on RFX393 it was 19.6 µM; in the experiment on ACHN, 2.3 µM; in the experiment on Reh, 18.3 µM.
In the case of `O=C(Nc1ccc(Cl)c(Cl)c1)N1CCC(n2c(=O)[nH]c3c(-c4ccc(CO)nc4)cccc32)CC1` [TH5796, N-(3,4-Dichlorophenyl)-4-[4-[6-(hydroxymethyl)-3-pyridyl]-2-oxo-3H-benzimidazol-1-yl]piperidine-1-carbox amide], the EC50 came out at 7.9 µM in the experiment with A3 (Homo sapiens, 120 h); 10.5 µM in the experiment on CCRF-CEM (Homo sapiens, 120 h); 18 µM with KG1a (Homo sapiens, KG-1a, 120 h); 11.5 µM in the experiment with Hec59 (Homo sapiens, 120 h); 20.6 µM in the experiment on M059J (Homo sapiens, 120 h); 26.5 µM with MCF7 (Homo sapiens, 120 h). Also, the concentration for a half-maximal effect (EC50) in the experiment with K562 (Homo sapiens, 120 h) was 21 µM; in the experiment on SW1271 (Homo sapiens, 120 h), 24.6 µM; in the experiment on THP1 (Homo sapiens, THP-1, 120 h) it was 19.2 µM; with LCL#1 (Homo sapiens, 120 h), 33.5 µM; with NB-4 (Homo sapiens, 120 h) it was 11.5 µM; in the experiment with LCL#2 (Homo sapiens, 120 h), 40.7 µM. In addition, the EC50 worked out at 13.8 µM with Jurkat (Homo sapiens, 120 h); 17.3 µM in the experiment with Hec59+Chr2 (Homo sapiens, 120 h); 15.1 µM in the experiment with BJ-Ras (Homo sapiens, 120 h); 14.2 µM in the experiment with RFX393 (Homo sapiens, 120 h); 8.5 µM in the experiment on ACHN (Homo sapiens, 120 h); 14.7 µM in the experiment on Reh (Homo sapiens, 120 h).
As to `Cc1cc(NC(=O)N2CCC(n3c(=O)[nH]c4c(Br)cccc43)CC2)ccc1I` [TH6943, 4-(4-Bromo-2-oxo-3H-benzimidazol-1-yl)-N-(4-iodo-3-methyl-phenyl)piperidine-1-carboxamide], the EC50 was determined as 9.8 µM with A3 (Homo sapiens, 120 h); 7.9 µM with CCRF-CEM (Homo sapiens, 120 h); 18.8 µM in the experiment on KG1a (Homo sapiens, KG-1a, 120 h); 29.4 µM in the experiment with M059J (Homo sapiens, 120 h); 40 µM in the experiment on LCL#1 (Homo sapiens, 120 h); 32.3 µM in the experiment on LCL#2 (Homo sapiens, 120 h). The concentration for a half-maximal effect (EC50) in the experiment with Jurkat (Homo sapiens, 120 h) was 15.2 µM; with BJ-Ras (Homo sapiens, 120 h) it was 14.1 µM; with RFX393 (Homo sapiens, 120 h), 11.7 µM; with ACHN (Homo sapiens, 120 h) it was 2.8 µM; in the experiment on Reh (Homo sapiens, 120 h), 17.3 µM.

The values are drawn from PMC7708037, “Targeting OGG1 arrests cancer cell proliferation by inducing replication stress” (Nucleic Acids Research, 2020).
